# Measurements reported in patent US6887896B1, “7-[(7-Alkoxy)-chrom-3-en-6-yl]-heptatrienoic acid and 7-[(3-alkoxy)-5,6-dihydronaphthalen-2-yl]-heptatrienoic acid derivatives having serum glucose reducing activity” (Allergan, Inc., priority 2003, dated 2005).
# What was measured:
# RARα = biological target: T1, RARα (Homo sapiens, UniProt P10276); experiment: chimeric receptor transactivation assay, RARα; type: cell-based; conditions: for EC50: chimeric receptor transactivation, read-out: RAR Trans. EC50 α; for Emax: percentage compared to the standard compound, read-out: RAR Trans. efficacy (number in parentheses) α
# T1 sequence (P10276 183-417 limits assumed): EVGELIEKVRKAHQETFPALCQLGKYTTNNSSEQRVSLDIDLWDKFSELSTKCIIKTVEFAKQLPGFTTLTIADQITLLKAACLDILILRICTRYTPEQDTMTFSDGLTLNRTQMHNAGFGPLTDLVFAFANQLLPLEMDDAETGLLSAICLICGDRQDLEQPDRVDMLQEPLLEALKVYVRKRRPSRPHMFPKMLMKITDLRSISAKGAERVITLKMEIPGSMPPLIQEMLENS
# Source text: (§1) Specifically, one such assay is a chimeric receptor transactivation assay which tests for agonist-like activity in the R RAPE and RAR7 receptor subtypes, and which is based on work published by Feigner, P. L. and Holm, M (1989) Focus, 112 is described in detail in U.S. Pat. No. 5,455,265. The specification of U.S. Pat. No. 5,455,265 is hereby expressly incorporated by reference. A holoreceptor transactivation assay and a ligand binding assay which measure the antagonist/agonist like activity of the compounds of the invention, or their ability to bind to the several retinoid receptor subtypes, respectively, are described in published PCT Application No. WO WO93/11755 (particularly on pages 30-33 and 37-41) published on Jun. 24, 1993, the specification of which is also incorporated herein by reference. A detailed experimental procedure for holoreceptor transactivations has been described by Heyman et al. Cell 68, 397-406, (1992); Allegretto et al. J. Biol. Chem. 268, 26625-26633, and Mangelsdorf et al. The Retinoids: Biology, Chemistry and Medicine, pp 319-349, Raven Press Ltd., New York, which are expressly incorporated herein by reference. The results obtained in this assay are expressed in EC50 numbers, as they are also in the chimeric receptor transactivation assay. The results of the ligand binding assay are expressed in Ki numbers. (See Cheng et al. Biochemical Pharmacology Vol. 22 pp 3099-3108, expressly incorporated herein by reference.)
# (§2) Efficacy in a transactivation assay is expressed as a percentage of the maximum potency attained by the compound compared to a standard which, in this case, is the compound named (2E,4E,1′S,2′S)-3-methyl-5-[2′-methyl-2′-(5,5,8,8-tetramethyl-5,6,7,8-tetrahydro-naphthalen-2-yl)-cyclopropyl]-penta-2,4-dienoic acid. This standard compound is described in U.S. Pat. No. 6,114,533.
# (§3) The specification of this application for patent is organized in several sections in accordance with structural Formulas A through F each of which discloses a group of preferred compounds within the scope of the invention. Tables that disclose the activity of certain exemplary compounds of the invention in the above-described RXR receptor transactivation and binding assays are found in the corresponding sections. […] The transactivation data pertaining to the activation of RXR receptors were obtained in the holoreceptor assay.
# (§4) Generally speaking, in the tables disclosing the results of transactivation and binding assays the numbers in parentheses indicate efficacy as a percentage compared to the standard compound, (2E,4E,1′S,2′S)-3-methyl-5-[2′-methyl-2′-(5,5,8,8-tetramethyl-5,6,7,8-tetrahydro-naphthalen-2-yl)cyclopropyl]-penta-2,4-dienoic acid and the other numbers indicate the measured EC50 and K; in nanomolar concentration.
# RXRβ = biological target: T2, RXRβ (UniProt P28704); experiment: holoreceptor transactivation assay, RXRβ; type: cell-based; conditions: for EC50: holoreceptor transactivation, read-out: RXR Trans. EC50 β; for RXR Trans. efficacy (number in parentheses) β: percentage compared to the standard compound
# T2 sequence (P28704 1-520): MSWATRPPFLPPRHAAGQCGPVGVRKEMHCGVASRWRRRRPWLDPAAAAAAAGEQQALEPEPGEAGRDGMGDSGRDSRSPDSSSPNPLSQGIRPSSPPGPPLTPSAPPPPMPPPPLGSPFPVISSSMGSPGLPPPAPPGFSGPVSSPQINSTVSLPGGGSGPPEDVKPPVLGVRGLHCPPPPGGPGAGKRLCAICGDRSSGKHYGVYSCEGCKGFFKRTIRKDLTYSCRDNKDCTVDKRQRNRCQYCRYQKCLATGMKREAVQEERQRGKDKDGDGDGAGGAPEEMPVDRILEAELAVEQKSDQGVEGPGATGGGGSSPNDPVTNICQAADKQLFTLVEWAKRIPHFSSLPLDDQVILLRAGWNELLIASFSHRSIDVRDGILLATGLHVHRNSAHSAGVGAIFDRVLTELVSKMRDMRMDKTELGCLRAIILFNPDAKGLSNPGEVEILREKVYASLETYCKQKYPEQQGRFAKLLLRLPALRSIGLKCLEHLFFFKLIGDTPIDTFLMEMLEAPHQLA
# Source text: as §1, §2, §3, §4
# RXRγ = biological target: T3, RXRγ (UniProt P28705); experiment: ligand binding assay, RXRγ; conditions: for Kd: Table 9 (Formula F), read-out: RXR γ Kd
# T3 sequence (P28705 1-463): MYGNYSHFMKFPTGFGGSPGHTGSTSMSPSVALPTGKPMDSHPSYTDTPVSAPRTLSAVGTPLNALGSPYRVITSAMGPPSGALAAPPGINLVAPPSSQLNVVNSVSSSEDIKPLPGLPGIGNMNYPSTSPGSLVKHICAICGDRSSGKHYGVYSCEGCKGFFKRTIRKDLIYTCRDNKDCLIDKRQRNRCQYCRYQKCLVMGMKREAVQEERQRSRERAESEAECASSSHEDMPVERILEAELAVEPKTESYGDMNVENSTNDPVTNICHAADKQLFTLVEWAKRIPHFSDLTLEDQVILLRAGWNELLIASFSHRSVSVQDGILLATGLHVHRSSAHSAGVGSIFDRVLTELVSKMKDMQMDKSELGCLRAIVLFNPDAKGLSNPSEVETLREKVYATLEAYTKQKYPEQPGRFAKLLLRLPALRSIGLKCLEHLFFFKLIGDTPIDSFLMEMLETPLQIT
# Source text: as §1, §4
SMILES,EC50 (RARα),EC50 (RXRβ),RXR Trans. efficacy (number in parentheses) β (RXRβ),Emax (RARα),Kd (RXRγ),Ki (RXRγ; read-out: RXR Bind Ki γ)
"CC/C(=C(F)/C=C/C(C)=C/C(=O)O)c1cc2c(cc1OC)OC(C)(C)C=C2C [Compound 129, 6-Fluoro-7-(7-methoxy-2,2,4-trimethyl-2H-chromen-6-yl)-3-methyl-nona-2E,4E,6E-trienoic acid]",> 10 µM,0.843 µM,151%,,,
"CC/C(=C(F)/C=C/C(C)=C/C(=O)O)c1cc2c(c(Cl)c1OC)OC(C)(C)C=C2C(C)C [Compound 171, 7-(8-Chloro-4-isopropyl-7-methoxy-2,2-dimethyl-2H-chromen-6-yl)-6-fluoro-3-methyl-nona-2E,4E,6E-trienoic acid]",> 1 µM,0.0002 µM,85%,,,
"CCCOc1cc2c(cc1\C(C)=C(F)/C=C/C(C)=C/C(=O)O)C(c1ccccc1)=CC(C)(C)O2 [Compound 128, (2E,4E,6E)-7-(2,2-Dimethyl-4-phenyl-7-propoxy-2H-chromen-6-yl)-6-fluoro-3-methyl-octa-2,4,6-trienoic acid]",0.014 µM,,,25%,,
"CCOc1cc2c(cc1\C(C)=C/C=C/C(C)=C/C(=O)O)C(CC)=CC(C)(C)O2 [Compound 45, 7-(7-Ethoxy-4-ethyl-2,2-dimethyl-2H-chromen-6-yl)-3-methyl-octa-2E,4E,6Z-trienoic acid]",0.121 µM,> 1 µM,,6%,,
"COc1cc2c(cc1\C(C)=C/C=C/C(C)=C/C(=O)O)C(C(C)C)=CC(C)(C)O2 [Compound 43, 7-(4-Isopropyl-7-methoxy-2,2-dimethyl-2H-chromen-6-yl)-3-methyl-octa-2E,4E,6Z-trienoic acid]",0.013 µM,0.016 µM,96%,5%,,
"CCOc1cc2c(cc1\C(CC)=C(F)/C=C/C(C)=C/C(=O)O)C(CC)=CCC2(C)C [Compound A-78, (2E,4E,6E)-7-(3-Ethoxy-8-ethyl-5,5-dimethyl-5,6-dihydro-naphthalen-2-yl)-6-fluoro-3-methyl-nona-2,4,6-trienoic acid]",0.029 µM,0.018 µM,23%,10%,,
"CCOc1c(\C(CC)=C(F)/C=C/C(C)=C/C(=O)O)cc2c(c1Br)C(C)(C)CC=C2C(C)CC (stereo not shown) [Compound A-176, (2E,4E,6E)-7-(4-Bromo-8-sec-butyl-3-ethoxy-5,5-methyl-5,6-dihydro-naphthalen-2-yl)-6-fluoro-3-methyl-nona-2,4,6-trienoic acid]",,0.004 µM,58%,,0.122 µM,
"CCOc1cc2c(cc1\C(C)=C(F)/C=C/C(C)=C/C(=O)O)C(C(C)C)=CCC2(C)C [Compound A-79, (2E,4E,6E)-6-Fluoro-3-(4,4-dimethylethoxy-1-isopropyl-3,4-dihydronaphthalen-7-yl)-3-methyl-2.4,6-octa-trienoic acid]",,0.004 µM,60%,,,0.088 µM
"CC(/C=C/C(F)=C(/C)c1cc2c(c(Br)c1OC(C)C)C(C)(C)CC=C2C(C)C)=C\C(=O)O [Compound A-172, (2E,4E,6E)-7-(4-Bromo-3-isopropoxy-8-isopropyl-5,5-dimethyl-5,6-dihydro-naphthalen-2-yl)-6-fluoro-3-methyl-octa-2,4,6-trienoic acid]",,0.083 µM,39%,,0.221 µM,
"CC/C(=C(F)/C=C/C(C)=C/C(=O)O)c1cc2c(cc1OC)OC(C)(C)C=C2C(C)C [Compound 130, 6-Fluoro-7-(4-isopropyl-7-methoxy-2,2-dimethyl-2H-chromen-6-yl)-3-methyl-nona-2E,4E,6E-trienoic acid]",0.218 µM,0.0031 µM,73%,8%,,
"CCOc1cc2c(cc1\C(C)=C(F)/C=C/C(C)=C/C(=O)O)C(c1ccccc1)=CC(C)(C)O2 [Compound 127, (2E,4E,6E)-7-(7-Ethoxy-2,2-dimethyl-4-phenyl-2H-chromen-6-yl)-6-fluoro-3-methyl-octa-2,4,6-trienoic acid]",0.245 µM,,,26%,,
